Like-named read-outs stand apart in the source and are kept apart here.
What was measured:
[1] = target: T1, GL-7ACA acylase J1 of Bacillus laterosporus J1 (SEQ ID NO: 3), purified from recombinant E. coli (Brevibacillus laterosporus, UniProt Q45289); assay: biochemical; conditions: for Relative activity (%): enzyme treated 37° C. 3 hours in 0.1 M Tris-HCl (pH 8), residual activity vs blank-treated enzyme, substrate GL-7ACA
Description: Effect of p-chloromercuribenzoate (pCMB, Sigma Chemical Co., Ltd.), phenylmethylsulfonyl fluoride (PMSF, Sigma) and ethylenediaminetetraacetic acid (EDTA, Nacalai Tesque Inc., Japan) on the activity of GL-7ACA acylase J1 was examined as follows. Eleven μg of GL-7ACA acylase J1 was treated at 37° C. for 3 hours with 1.0 or 5.0 mM pCMB, 1.0 or 5.0 mM PMSF, or 1.0 or 5.0 mM EDTA in 200 μl of 0.1 M Tris-HCl buffer (pH 8). Residual activity of the treated enzyme was assayed by adding 22 μl of GL-7ACA (20 mg/ml) as a substrate to the mixture. The reaction was performed at 37° C for 10 min. Residual activity was expressed as a percentage compared to the activity of the enzyme treated with blank solution.

[2] = target: T1, GL-7ACA acylase J1 of Bacillus laterosporus J1 (SEQ ID NO: 3), purified from recombinant E. coli; assay: Inhibition by reaction products (competitive), Ki determination by HPLC assay; format: biochemical; conditions: substrate GL-7ACA, 37° C.
Description: Inhibitory activity of reaction products, namely 7-ACA and glutaric acid on the enzyme activity of GL-7ACA acylase J1 was examined. The enzyme activity was assayed in the presence of various concentrations of 7-ACA or glutaric acid. For determination of Ki of 7-ACA, reaction mixture (200 μl) containing 20 μmole of glycine buffer (pH 9), 0.39-2.0 μmole of GL-7ACA, 0.3-0.48 μmole of 7-ACA and 11 μg of enzyme was used and the reaction was performed at 37° C. for 6 min. For determination of Ki of glutaric acid, reaction mixture (200 μl) containing (a) 20 μmole of glycine buffer (pH 9), 0.26-3.0 μmol of GL-7ACA, 2-10 μmol of glutaric acid and 11 μg of the enzyme (b) 20 μmol of Tris-HCl buffer (pH 8), 0.05-1.0 μmol of GL-7ACA, […] of glutaric acid and 5 μg of the enzyme was used. The reaction was performed at 37° C. for 3 min. […] Ki values were calculated from the apparent Michaelis constants (Kmapp), Km and Vmax. Ki values of 7-ACA was 2.0 mM.

[3] = system: CC(=O)OCC1=C(C(=O)O)N2C(=O)C(NC(=O)CCCC(=O)O)[C@H]2SC1; assay: Michaelis-Menten kinetics of GL-7ACA hydrolysis, HPLC assay, Lineweaver-Burk plot; format: biochemical, Bacillus laterosporus J1; conditions: 37° C., 2 min
Description: Transformant colonies were picked up and grown overnight at 30° C. in 1 ml of 2% Bouillon (Eiken Chemical Co., Ltd., Japan) supplemented with 1 mM […] (IPTG; Sigma Chemical Co., Ltd., U.S.A.). Cells were harvested by centrifugation and resulting cell pellets were used for assay. Reaction mixture (200 μl ) containing 100 mM phosphate buffer (pH 8), 2 mg of GL-7ACA and cell pellets were thoroughly mixed and incubated for 10 min at 37° C. The reaction was terminated by the addition of 200 μl of 4% acetic acid. Samples were applied to a Inertsil ODS-2 column (4.6 mm × 150 mm) (Gasukuro Kogyo Co., Ltd., Japan) and elution was performed with 0.567 g/l of Na2 HPO4, 0.36 g/l of KH2 PO4 and 2-4% methanol. 7ACA was detected with absorption at 254 nm.
The activity of the GL-7ACA acylase J1 was determined by HPLC assay. […] Specific enzyme activity was expressed as unit per mg of protein. Protein concentrations were determined by Bio-Rad protein assay kit (Bio-Rad Co., Ltd., U.S.A.) with bovine serum albumin as a standard. Maximum specific enzyme activity (Vmax) and Michaelis constant (Km) were calculated from slope and intersection which were obtained by Lineweaver-Burk plot (Cf. M. Dixon and E. C. Webb, Enzymes, Longmans, London, 1958). […]

[4] = pH 8, read-out: Relative activity (%)

T1 sequence (Q45289 entry or part of it): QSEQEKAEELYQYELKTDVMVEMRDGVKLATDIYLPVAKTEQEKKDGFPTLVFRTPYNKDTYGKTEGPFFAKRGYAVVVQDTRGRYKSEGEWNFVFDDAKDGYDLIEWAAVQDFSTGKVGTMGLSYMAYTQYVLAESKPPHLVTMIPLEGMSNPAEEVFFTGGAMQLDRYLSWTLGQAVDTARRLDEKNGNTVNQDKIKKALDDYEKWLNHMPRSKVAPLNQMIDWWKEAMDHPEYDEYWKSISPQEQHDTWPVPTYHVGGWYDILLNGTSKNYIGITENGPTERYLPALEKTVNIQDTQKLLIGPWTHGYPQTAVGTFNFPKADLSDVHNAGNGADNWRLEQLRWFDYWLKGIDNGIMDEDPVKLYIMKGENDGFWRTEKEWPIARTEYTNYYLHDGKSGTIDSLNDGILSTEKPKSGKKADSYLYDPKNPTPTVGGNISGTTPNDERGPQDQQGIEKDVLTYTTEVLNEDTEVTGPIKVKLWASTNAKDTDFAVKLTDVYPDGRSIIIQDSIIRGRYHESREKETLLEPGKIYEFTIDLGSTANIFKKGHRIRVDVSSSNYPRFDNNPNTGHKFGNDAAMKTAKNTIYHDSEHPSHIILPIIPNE

O=S(=O)(F)Cc1ccccc1 [PMSF, phenylmethylsulfonyl fluoride]
Relative activity (%) ([1]; inhibitor 1 mM): 90%
Relative activity (%) ([1]; inhibitor 5 mM): 78%

O=C(O)CN(CCN(CC(=O)O)CC(=O)O)CC(=O)O [EDTA, ethylenediaminetetraacetic acid]
activity at 1000 µM [1, 4]: 100%
activity at 5000 µM [1, 4]: 102%

O=C(O)CCCC(=O)O [glutaric acid]
Ki ([2]; 0.1M Tris-HCl buffer (pH 8), 3 min, read-out: Ki of glutaric acid): 990 µM
Ki ([2]; 0.1M glycine buffer (pH 9), 3 min, read-out: Ki of glutaric acid): 53000 µM

O=C(O)c1cc[c]([Hg][Cl])cc1 [pCMB, p-chloromercuribenzoate]
Relative activity (%) ([1]; inhibitor 1 mM): 106%
Relative activity (%) ([1]; inhibitor 5 mM): 104%

CC(=O)OCC1=C(C(=O)O)N2C(=O)C(N)C2SC1 (centres unmarked) [7-ACA, 7-aminocephalosporanic acid]
Ki ([2]; glycine buffer (pH 9), 6 min, read-out: Ki of 7-ACA): 2000 µM

GL-7ACA acylase J1 of Bacillus laterosporus J1 (SEQ ID NO: 3), purified from recombinant E. coli (Brevibacillus laterosporus)
Km ([3]; other: 100 mM Tris-HCl buffer (pH 8), 0.16-5 mM GL-7ACA, pH 8.0): 140 µM
Km ([3]; other: 100 mM glycine buffer (pH 9), 1.4-20 mM GL-7ACA, pH 9.0): 3200 µM
